Consider 52 compounds from patent US20240246941A1, “SUBSTITUTED 4-(3-AMINOPROP-1-YL)AMINOQUINOLINE ANALOGS AS MODULATORS OF MELANOMA-ASSOCIATED ANTIGEN 11 UBIQUITIN LIGASE” (ST. JUDE CHILDREN'S RESEARCH HOSPITAL, INC., priority 2020, published 2024).

The target in the first experiment is MAGE-A11:PCF11 (Homo sapiens (Human), UniProt P43364). Kind of experiment: TR-FRET single point screening at 15 μM. Also noted: unit not given here. It counts as binding. As to conditions: single point TR-FRET screening at 15 μM against MAGE-A11:PCF11. In a few lines: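 Single-point screen at 15 μM (0.25% DMSO) measuring disruption of GST-MAGEA11 (5 nM) binding to FAM-PCF11_4 peptide (200 nM) detected by Tb-anti-GST (5 nM). Buffer 50 mM Tris pH 7.5, 20 mM MgCl2, 0.1 mg/ml BSA, 1 mM DTT; 90 min at ~25 °C; 520/490 nm ratio converted to % inhibition versus controls.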
MAGE-A11:PCF11, sequence (P43364 218-429): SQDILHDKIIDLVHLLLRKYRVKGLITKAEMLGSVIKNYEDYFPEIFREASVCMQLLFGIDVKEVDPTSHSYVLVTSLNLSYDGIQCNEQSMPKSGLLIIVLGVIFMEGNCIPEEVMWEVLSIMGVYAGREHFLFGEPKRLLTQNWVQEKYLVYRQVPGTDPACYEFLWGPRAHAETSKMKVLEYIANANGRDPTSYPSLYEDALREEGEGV
In turn, `Cc1cc(C)c(CN2CCC(Nc3ccnc4cc(Cl)ccc34)CC2)c(C)c1` [SJ000523084] registered a TR-FRET signal of 11.75. The compound `Clc1ccc2c(NC3CCN(CC4CCCCC4)CC3)ccnc2c1` [SJ000523085] yielded a TR-FRET signal of 15.43. The same measure, in the same setting: then `CCC(CC)CN1CCC(Nc2ccnc3cc(Cl)ccc23)CC1` [SJ000523086], with 9.754; and `Clc1ccc2c(NC3CCN(Cc4ccc5c(c4)OCO5)CC3)ccnc2c1` [SJ000523087], with 7.643. The same measure, in the same setting: then `CCCCCN1CCC(Nc2ccnc3cc(Cl)ccc23)CC1` [SJ000523088], with 12.17. For `Fc1ccc(CN2CCC(Nc3ccnc4cc(Cl)ccc34)CC2)cc1F` [SJ000523089], the TR-FRET signal is −1.958.

With `COc1ccc(CN2CCC(Nc3ccnc4cc(Cl)ccc34)CC2)cc1` [SJ000523090], the TR-FRET signal was found to be 23.72.

For the compound `Fc1ccccc1CN1CCC(Nc2ccnc3cc(Cl)ccc23)CC1` [SJ000523091], the TR-FRET signal is −0.9977. In turn, `Fc1cccc(CN2CCC(Nc3ccnc4cc(Cl)ccc34)CC2)c1` [SJ000523092] showed a TR-FRET signal of 6.622. Still for that read-out and setting: then `Fc1ccc(CN2CCC(Nc3ccnc4cc(Cl)ccc34)CC2)cc1` [SJ000523093], with 10.66. On the same count and under the same terms, to `O=[N+]([O-])c1ccccc1CN1CCC(Nc2ccnc3cc(Cl)ccc23)CC1` [SJ000523094] belongs −2.026; to `O=[N+]([O-])c1cccc(CN2CCC(Nc3ccnc4cc(Cl)ccc34)CC2)c1` [SJ000523095], 0.8927; to `O=[N+]([O-])c1ccc(CN2CCC(Nc3ccnc4cc(Cl)ccc34)CC2)cc1` [SJ000523096], −4.954. The same measure, in the same setting: to `COc1ccccc1CN1CCC(Nc2ccnc3cc(Cl)ccc23)CC1` [SJ000523097] belongs 8.596; to `O=C(O)c1ccccc1CN1CCC(Nc2ccnc3cc(Cl)ccc23)CC1` [SJ000523098], −2.194; to `Clc1ccc2c(NC3CCN(Cc4cccc5ccccc45)CC3)ccnc2c1` [SJ000523099], −6.179.

Compound `Clc1ccc2c(NC3CCN(Cc4ccc5ccccc5c4)CC3)ccnc2c1` [SJ000523100] returned a TR-FRET signal of 4.171.

Take `Cc1cccc(CN2CCC(Nc3ccnc4cc(Cl)ccc34)CC2)c1` [SJ000523101]: the TR-FRET signal is 18.54.

Consider `CN(C)c1ccc(CN2CCC(Nc3ccnc4cc(Cl)ccc34)CC2)cc1` [SJ000523102], for which the TR-FRET signal is on record as 13.09. The same measure, in the same setting: then `COc1ccc(CN2CCC(Nc3ccnc4cc(Cl)ccc34)CC2)cc1OC` [SJ000523103], with 11.75.

With `Clc1ccc2c(NC3CCN(CCCc4ccccc4)CC3)ccnc2c1` [SJ000523104], the TR-FRET signal was 20.65.

`CCC(C)CN1CCC(Nc2ccnc3cc(Cl)ccc23)CC1` (stereo not shown) [SJ000523105] returned a TR-FRET signal of 11.19. On the same count and under the same terms, to `Cc1ccc(C)c(CN2CCC(Nc3ccnc4cc(Cl)ccc34)CC2)c1` [SJ000523106] belongs 18.68; to `COc1cccc(CN2CCC(Nc3ccnc4cc(Cl)ccc34)CC2)c1` [SJ000523107], 3.149; to `CCCCCCN1CCC(Nc2ccnc3cc(Cl)ccc23)CC1` [SJ000523108], 29.3.

For the compound `O=C(C[C@H]1CC[C@]2(CC1)OO[C@]1(O2)C2CC3CC(C2)CC1C3)NCCCCNc1ccnc2cc(Cl)ccc12` [SJ000578384], the TR-FRET signal turned out to be 25.12. The compound `Cc1cc(NC(=O)CN[C@H]2CCN(Cc3ccccc3)C2)c2ccccc2n1` [SJ000832405] came in with a TR-FRET signal of 4.364.

Take `Cc1cc(NC(=O)CN[C@H]2CCN(Cc3cccc(F)c3)C2)c2ccccc2n1` [SJ000832581]: the TR-FRET signal was −1.278.

The same experiment, now with this note: single point TR-FRET screening of quinoline compounds against MAGE-A11:PCF11; 15 μM.
Take `CCCN(CCCNc1ccnc2cc(C(F)(F)F)ccc12)Cc1cccc(C)c1` [SJ000523076]: the TR-FRET signal came to 20.17. In the case of `CCCN(CCCNc1ccnc2cc(C(F)(F)F)ccc12)Cc1ccc(N(C)C)cc1` [SJ000523077], the TR-FRET signal turned out to be 23.71. Same read-out and setting: to `CCCN(CCCNc1ccnc2cc(C(F)(F)F)ccc12)Cc1ccc(Cl)cc1Cl` [SJ000523078] belongs 3.83. For `CCCN(CCCNc1ccnc2cc(C(F)(F)F)ccc12)Cc1ccc(OC)c(OC)c1` [SJ000523079], the TR-FRET signal was found to be 14.66.

With `CCCN(CCCNc1ccnc2cc(C(F)(F)F)ccc12)CCCc1ccccc1` [SJ000523080], the TR-FRET signal is listed as 28. Still for that read-out and setting: then `CCCN(CCCNc1ccnc2cc(C(F)(F)F)ccc12)CC(C)CC` (stereo not shown) [SJ000523081], with 22.28; and `CCCN(CCCNc1ccnc2cc(C(F)(F)F)ccc12)Cc1cc(C)ccc1C` [SJ000523082], with 21.74. Same read-out and setting: then `CCCCCCN(CCC)CCCNc1ccnc2cc(C(F)(F)F)ccc12` [SJ000523083], with 34.95; and `CCCN(CCCNc1c2ccc(Cl)cc2nc2ccc(OC)cc12)CC1CCOC1` (stereo not shown) [SJ000575149], with −35.94. On the same count and under the same terms, to `CCCN(CCCNc1c2ccc(Cl)cc2nc2ccc(OC)cc12)CC(C)C` [SJ000575150] belongs −21.37; to `CCCN(CCCCCC(=O)OC)CCCNc1c2ccc(Cl)cc2nc2ccc(OC)cc12` [SJ000575151], −37.41. For the compound `CCCN(CCCNc1c2ccc(Cl)cc2nc2ccc(OC)cc12)Cc1cccnc1` [SJ000575152], the TR-FRET signal is given as −23.4.

In turn, `CCCN(CCCNc1ccnc2cc(C(F)(F)F)ccc12)Cc1nccn1C` [SJ000575170] came in with a TR-FRET signal of 7.124. On the same count and under the same terms, to `CCCN(CCCNc1ccnc2cc(C(F)(F)F)ccc12)Cc1ccc2[nH]ccc2c1` [SJ000575171] belongs 32.89. `CCCN(CCCNc1ccnc2cc(C(F)(F)F)ccc12)Cc1scnc1C` [SJ000575179] gave a TR-FRET signal of 5.164. Still for that read-out and setting: then `CCCN(CCCNc1ccnc2cc(C(F)(F)F)ccc12)Cc1cccnc1Br` [SJ000575180], with 5.164; and `CCCN(CCCNc1ccnc2cc(C(F)(F)F)ccc12)Cc1ncc[nH]1` [SJ000575181], with 9.345. `CCCN(CCCNc1ccnc2cc(C(F)(F)F)ccc12)Cc1cnn(C)c1` [SJ000575182]: the TR-FRET signal worked out at 15.68. Regarding `CCCN(CCCNc1ccnc2cc(C(F)(F)F)ccc12)Cc1nccs1` [SJ000575189], the TR-FRET signal turned out to be 8.665. Same read-out and setting: to `CCCN(CCCNc1ccnc2cc(C(F)(F)F)ccc12)CC1CCOC1` (stereo not shown) [SJ000575190] belongs 1.787; to `CCCN(CCCCCC(=O)OC)CCCNc1ccnc2cc(C(F)(F)F)ccc12` [SJ000575191], 5.6. Still for that read-out and setting: then `Clc1ccc2c(NCCCNCc3ccc[nH]3)ccnc2c1` [SJ000575192], with 52.99. The same measure, in the same setting: to `Clc1ccc2c(NCCCNCc3ccc(Br)s3)ccnc2c1` [SJ000575193] belongs 15.34; to `O=C(C[C@H]1CC[C@]2(CC1)OO[C@]1(O2)C2CC3CC(C2)CC1C3)NCCCNc1ccnc2cc(Cl)ccc12` [SJ000578380], 28.48.
